Source: paper PMC6272178, “Flavonoids from Sideritis Species: Human Monoamine Oxidase (hMAO) Inhibitory Activities, Molecular Docking Studies and Crystal Structure of Xanthomicrol” (Molecules, 2015)
Read-outs that look alike come from different tables or passages of the source.

Key:
[1] = molecular target: T1, hMAO-A (Homo sapiens, UniProt P21397); test: hMAO-A inhibition, fluorimetric Amplex Red assay with p-tyramine, kinetic Ki determination; assay type: biochemical; settings: for Mode of hMAO-A inhibition: Lineweaver–Burk plots; for Experimental SI: SI = Ki (MAO-A)/Ki (MAO-B); for Experimental SI / Selectivity: from experimental Ki values; for Selectivity: isoform preferentially inhibited; for Ki: recombinant hMAO-A, p-tyramine substrate 0.05–0.5 mM, mean ± SEM of three experiments, read-out: Experimental Ki for MAO-A
T1 construct: purchased Sigma-Aldrich (Munich, Germany); host or cells: baculovirus-infected BTI insect cells
T1 sequence (P21397 1-527): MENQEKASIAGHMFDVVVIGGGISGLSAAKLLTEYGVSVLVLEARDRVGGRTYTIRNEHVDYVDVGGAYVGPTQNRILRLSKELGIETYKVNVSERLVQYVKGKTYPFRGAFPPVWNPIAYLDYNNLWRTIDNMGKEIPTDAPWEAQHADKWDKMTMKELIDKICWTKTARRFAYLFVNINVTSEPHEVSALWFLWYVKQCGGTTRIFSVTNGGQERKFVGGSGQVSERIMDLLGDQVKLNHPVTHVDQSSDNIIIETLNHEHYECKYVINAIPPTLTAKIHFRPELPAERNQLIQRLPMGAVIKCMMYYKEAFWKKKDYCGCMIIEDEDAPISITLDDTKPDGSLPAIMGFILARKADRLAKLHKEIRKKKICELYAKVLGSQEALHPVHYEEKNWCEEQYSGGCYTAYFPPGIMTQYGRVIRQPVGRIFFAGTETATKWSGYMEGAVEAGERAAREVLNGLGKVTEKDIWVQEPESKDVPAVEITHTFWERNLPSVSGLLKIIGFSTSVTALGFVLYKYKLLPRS

[2] = molecular target: T2, hMAO-B (Homo sapiens, UniProt P27338); test: hMAO-B inhibition, fluorimetric Amplex Red assay with p-tyramine, kinetic Ki determination; assay type: biochemical; settings: recombinant hMAO-B, p-tyramine substrate 0.05–0.5 mM, mean ± SEM of three experiments; read-out: Experimental Ki for MAO-B
T2 construct: purchased Sigma-Aldrich (Munich, Germany); host or cells: baculovirus-infected BTI insect cells
T2 sequence (P27338 1-520): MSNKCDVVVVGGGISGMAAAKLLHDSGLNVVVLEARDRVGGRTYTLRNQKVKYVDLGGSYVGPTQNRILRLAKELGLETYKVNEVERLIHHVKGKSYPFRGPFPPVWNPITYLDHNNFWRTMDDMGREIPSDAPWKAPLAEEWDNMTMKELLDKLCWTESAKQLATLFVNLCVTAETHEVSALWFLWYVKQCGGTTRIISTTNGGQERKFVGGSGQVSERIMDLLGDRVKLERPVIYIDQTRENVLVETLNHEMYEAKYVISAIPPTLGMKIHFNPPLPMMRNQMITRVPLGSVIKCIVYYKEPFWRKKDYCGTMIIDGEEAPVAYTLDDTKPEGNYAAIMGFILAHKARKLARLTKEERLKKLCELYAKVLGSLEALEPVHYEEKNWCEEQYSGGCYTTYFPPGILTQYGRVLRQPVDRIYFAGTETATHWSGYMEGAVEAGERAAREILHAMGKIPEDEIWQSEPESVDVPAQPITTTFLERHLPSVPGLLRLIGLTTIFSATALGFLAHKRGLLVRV

[3] = molecular target: T1, hMAO-A; test: Reversibility of hMAO-A inhibition, centrifugation-ultrafiltration method; assay type: biochemical; settings: for inhibition at 0.5 µM: compound 0.50 μM, mean ± SEM of three experiments; for Reversibility of hMAO-A inhibition: recovery of hMAO-A activity after repeated washing
Description: Reversibility of the MAO inhibition with newly synthesized compounds was determined by centrifugation-ultrafiltration method previously described. Recombinant enzymes (hMAO-A or B) were incubated with a single concentration of the synthesized compounds or the reference inhibitors in a sodium phosphate buffer (0.05 M, pH 7.4) for one hour at 37 °C. An aliquot was stored at 4 °C and used for the measurement of MAO-A and -B activities. The remaining incubated sample was placed in an Ultrafree-0.5 centrifugal tube with a 30 kDa Biomax membrane and centrifuged at 9000× g for 20 min at 4 °C. The enzyme retained in the 30 kDa membrane was re-suspended in a sodium phosphate buffer at 4 °C and centrifuged two more times. After the third centrifugation, the enzyme retained in the membrane was re-suspended in sodium phosphate buffer ([…]) and an aliquot of this suspension was used for MAO-A and -B activity determination. Control experiments were performed simultaneously to determine the 100% MAO activity by replacing the compounds and standards with appropriate dilutions of the vehicles. The corresponding values of percent (%) MAO isoform inhibition was separately calculated for samples with and without repeated washing.

[4] = tested on: mouse brain MAO-A; design: method as in PMID 24218136, PMID 25142815; settings: flavonoids from Cayratia japonica; cited from earlier work
[5] = after repeated washing (three centrifugation-ultrafiltration steps), read-out: hMAO-A Inhibition (%) After Washing
[6] = incubated one hour at 37 °C, before washing, read-out: hMAO-A Inhibition (%) Before Washing

SMILES	Mode of hMAO-A inhibition [1]	Experimental SI [1]	Selectivity [1]	Ki [1] [µM]	Ki [2] [µM]	inhibition at 0.5 µM [3, 5] [%]	inhibition at 0.5 µM [3, 6] [%]	Reversibility of hMAO-A inhibition [3]	IC50 [4] [µM]
COc1c(OC)c(O)c2c(=O)cc(-c3ccc(O)cc3)oc2c1OC [Compound 1, xanthomicrol]	competitive	0.007	MAO-A	0.76 ± 0.03	99.5 ± 7.44	9.23 ± 0.75	86.5 ± 5.21	highly reversible inhibitors	
CC(=O)OC[C@H]1O[C@@H](O[C@H]2[C@H](Oc3cc(O)c4c(=O)cc(-c5ccc(O)cc5)oc4c3O)O[C@H](CO)[C@@H](O)[C@@H]2O)[C@H](O)[C@H](O)[C@@H]1O [Compound 2, isoscutellarein 7-O-[6'''-O-acetyl-β-D-allopyranosyl-(1→2)]-β-D-glucopyranoside]		0.015	MAO-A	1100 ± 99.2	75600	10.9 ± 0.99	80.2 ± 5.66		
CC(=O)OC[C@H]1O[C@@H](O[C@H]2[C@H](Oc3cc(O)c4c(=O)cc(-c5ccc(O)cc5)oc4c3O)O[C@H](COC(C)=O)[C@@H](O)[C@@H]2O)[C@H](O)[C@H](O)[C@@H]1O [Compound 3, isoscutellarein 7-O-[6'''-O-acetyl-β-D-allopyranosyl-(1→2)]-6''-O-acetyl-β-D-glucopyranoside]		0.034	MAO-A	2800 ± 180	80500	13.3 ± 1.09	74.2 ± 4.89		
COc1ccc(-c2cc(=O)c3c(O)c(OC)c(OC)cc3o2)cc1 [Compound 4, salvigenin]	competitive	0.086	MAO-A	0.54 ± 0.02	6.27 ± 0.36	8.66 ± 0.65	89 ± 5.02	highly reversible inhibitors	
O=C(NCCN1CCOCC1)c1ccc(Cl)cc1 [Moclobemide, moclobemide, reference compound]						7.89 ± 0.52	91.2 ± 6.33		
O=c1cc(-c2ccc(O)cc2)oc2cc(O)cc(O)c12 [apigenin]									1.17
